# Measurements as given in US20140179678A1, “METHODS OF TARGETED TREATMENT OF FRONTOTEMPORAL LOBAR DEGENERATION” (priority 2011, published 2014).
# Where two headings read alike, the source gives them in different places.
# Legend:
# [1] = tested on: progranulin protein in CSF and plasma; experiment: Progranulin levels in rat CSF and plasma (ELISA); format: in vivo, Sprague Dawley rats; conditions: normal rats, 100 mg/kg intra-peritoneally
# Method: Sprague Dawley rats (n=12/group; Charles River) were dosed intra-peritoneally with either vehicle (Solutol HS 15/Ethanol (3:2 v/v)) or with a dose of 100 mg/kg of Compound 1 prepared in the same vehicle. EDTA-Plasma and CSF were collected after 4 and 8 hours of treatment, and progranulin levels were assessed by ELISA (Adipogen, Incheon, South Korea) using a 1:2 dilution for CSF (FIG. 6A) and a 1:25 dilution for plasma (FIG. 6B).
# [2] = tested on: progranulin protein in lymphoblasts from progranulin mutation carriers; experiment: Progranulin protein expression in FTLD patient lymphoblast cell lines (ELISA); format: cell-based, human; conditions: 3 μM, after 24 h
# Method: (§1) Immortalized (Epstein-Barr-Virus) B-lymphocytes isolated from the peripheral blood of patients subject harboring different mutations in the granulin gene were used to measure effects of compounds on progranulin mRNA and protein expression. The cell lines were maintained in complete growth medium (cGM), comprised of RPMI 1640 medium supplemented with 15% heat-inactivated FBS, 4 mM L-Glutamine and 1% Penicillin/Streptomycin. Cells were seeded into 24-well tissue-culture plates at a density of 400,000-500,000 cells per well in cGM. Following an overnight incubation, the cells were treated with 0.3 or 3 μM of Compound 1. Following an 8- or 24-hour exposure to Compound 1, cells were collected, spun, and the resulting cell pellets underwent a single rinse in chilled PBS.
# (§2) For analysis of progranulin protein expression, cell pellets were re-suspended in 150 μl of chilled RIPA Lysis Buffer supplemented with a protease-inhibitor cocktail and incubated for 15-20 minutes at 4° C. to allow for cell lysis. Total protein concentrations of each sample were determined by performing a BCA protein assay (Pierce). Quantitative determination of Progranulin protein levels was performed by ELISA (AdipoGen, Incheon, South Korea), using a 1:20 dilution of the cell lysate following the manufacturer protocol. […]
# [3] = Maximum Tolerated Dose in humans, oral dosing; format: in vivo; conditions: healthy volunteers
# [4] = tested on: progranulin mRNA in primary fibroblasts from progranulin mutation carriers; experiment: Progranulin mRNA expression in primary fibroblasts from progranulin mutation carriers (qPCR); format: cell-based, human; conditions: 3 μM, after 8 h
# Method: (§3) For analysis of progranulin mRNA expression, samples were analyzed as described in Example 1, with the exception that probes specific for the human granulin gene (Applied Biosystems, Carlsbad, Calif.) were used.
# (§4) Primary fibroblasts from patients harboring different mutations in the progranulin gene were isolated and maintained in complete growth medium (cGM), comprised of D-MEM supplemented with 10% heat-inactivated FBS and 1% Penicillin/Streptomycin. The fibroblasts were seeded into 6-well tissue-culture plates at a density of 150,000-190,000 cells per well in cGM. Following overnight incubation, the cells were treated with 0.3 or 3 μM of Compound 1. Analysis of progranulin mRNA expression was performed as described in Example 4. Analysis of progranulin protein was performed as described in Example 4.
# [5] = tested on: progranulin mRNA in lymphoblasts from progranulin mutation carriers; experiment: Progranulin mRNA expression in FTLD patient lymphoblast cell lines (qPCR); format: cell-based, human; conditions: 3 μM, after 24 h
# Method: as §1, §3
# [6] = tested on: progranulin mRNA in cerebral cortex; experiment: Progranulin mRNA expression in mouse cerebral cortex (qPCR); format: in vivo, C57BL/6 mice; conditions: normal mice, 100 mg/kg oral, 8 h after acute dosing
# Method: (§5) C57BL/6 mice (n=6/group; Charles River) were treated with either vehicle (1% carboxymethylcellulose-medium viscosity/0.5% Tween 80 (99.5:0.5 v/v)) or with an oral dose of 100 mg/kg of Compound 1 prepared in the same vehicle. Animals were sacrificed at specific time points and the brain extracted. Left and right hemisphere of the cerebral cortex were separated and used for RNA and protein extractions.
# RNA was extracted with Qiazol reagent using the RNeasy lipid-rich tissue kit from Qiagen (Valencia, Calif.) following manufacturer instructions. RNA was then transcribed into cDNA using the high capacity cDNA reverse transcription kit from Applied Biosystems (Carlsbad, Calif.), according to kit instructions. Relative progranulin gene expression was measured by quantitative PCR using mouse-specific probes (Applied Biosystems, Carlsbad, Calif.) for the granulin gene, and for Rp113a as a reference gene. The ΔΔCt method was used for calculations of relative gene expression levels (Pfaffl, Nucleic Acids Res., 2001). This method compares expression of the different genes (reference and gene of interest) in animals treated with vehicle versus the compound of the invention (FIG. 5A).
# [7] = tested on: progranulin protein in immortalized lymphoblasts from a normal human subject; experiment: Progranulin protein by western blot in immortalized lymphoblasts from a normal human subject; format: cell-based; conditions: 24 h
# Method: Cellular protein from immortalized (Epstein-Barr-Virus) B-lymphocytes isolated from the peripheral blood of normal human volunteers was isolated as described in Example 4. Cells were treated with Compound 1 for 24 h. For Western Blotting analysis of progranulin protein, 50 μg of total cellular protein were separated on a 4-12% Bis-Tris Poly-Acrylamide gel using MOPS Running Buffer, transferred to a PVDF membrane and probed with a R & D Systems (Minneapolis, Minn.) mouse monoclonal anti-human progranulin antibody, followed by an IRDye secondary antibody (Rockland). Detection was performed using the Li-COR Odyssey imaging system. Progranulin signals (Integrated Intensity after background subtraction) were quantified using Li-COR Odyssey software.
# [8] = tested on: progranulin protein in cerebral cortex; experiment: Progranulin protein levels in mouse cerebral cortex (ELISA); format: in vivo, C57BL/6 mice; conditions: normal mice, 100 mg/kg oral, 8 h after acute dosing
# Method: as §5
# Proteins were extracted in 50 mM Tris pH 7.4/150 mM NaCl/0.1% SDS with protease inhibitors using an extraction ratio of 200 mg of brain tissue per ml buffer. Sample was spun for 20 minutes at 16,200 g and supernatant collected. Progranulin levels were measured using a 1:4 dilution of the tissue extract (FIG. 5B) with a mouse ELISA kit from Adipogen (Incheon, South Korea) according to the manufacturer instructions. Progranulin levels were normalized to total protein concentration as measured by the BCA method (Pierce).
# [9] = Brain penetration (brain:plasma ratio of drug levels) after acute and repeated dosing; format: in vivo; conditions: rodents
# [10] = tested on: progranulin mRNA expression in primary cortical neurons; experiment: Progranulin mRNA expression by quantitative PCR in primary cortical neurons; format: cell-based, rat; conditions: for increase in progranulin mRNA expression: after 8 h of treatment, primary cortical neurons
# Method: (§6) Primary cortical (Cx) and hippocampal (Hp) neurons are derived from E17 Sprague-Dawley rats and cultured in 24-well plates (325,000 cells/well for Cx and 250,000 cells/well for Hp). Half of the medium is replaced with fresh medium every four days. On day 10 of culture, neurons are incubated in the presence of different concentrations (0.1-3 μM) of a compound of the invention, e.g., Compound 1, for 2-24 h. At specific time points, conditioned medium is removed and frozen until needed for ELISA assay. Cells are washed with PBS and RNA is extracted with Qiazol reagent using the RNeasy kit from Qiagen (Valencia, Calif.) following manufacturer instructions. RNA is then transcribed into cDNA using the high capacity cDNA reverse transcription kit from Applied Biosystems (Carlsbad, Calif.) according to kit instructions.
# Relative progranulin gene expression is measured by quantitative PCR using rat-specific probes (Applied Biosystems, Carlsbad, Calif.) for the granulin gene and for Rp113a as a reference gene. The ΔΔCt method is used for calculations of relative gene expression levels (Pfaffl, Nucleic Acids Res., 2001). This method compares expression of the different genes (reference and gene of interest) in cells treated with vehicle versus the compound of the invention. Moreover, this measurement and analysis of mRNA levels is expected to be predictive of the expression of progranulin protein levels.
# Neuronal granulin gene expression was measured at different time points as described in Example 1 (1, 4, 6, 8, 10, 18 and 24 h) following treatment with (Z)-4-(dibenzo[b,f][1,4]oxazepin-11-yl)-N-hydroxybenzamide
# [11] = tested on: progranulin protein in rat primary cortical neurons; experiment: Progranulin protein expression in rat primary cortical neurons (ELISA); format: cell-based; conditions: 3 μM, after 8 h
# Method: as §6, §2
# [12] = tested on: progranulin protein in primary fibroblasts from progranulin mutation carriers; experiment: Progranulin protein expression in primary fibroblasts from progranulin mutation carriers (ELISA); format: cell-based, human; conditions: 0.3 μM, after 8 h
# Method: For analysis of progranulin protein expression, cell pellets were re-suspended in 150 μl of chilled RIPA Lysis Buffer supplemented with a protease-inhibitor cocktail and incubated for 15-20 minutes at 4° C. to allow for cell lysis. Total protein concentrations of each sample were determined by performing a BCA protein assay (Pierce). Quantitative determination of Progranulin protein levels was performed by ELISA (AdipoGen, Incheon, South Korea), using a 1:20 dilution of the cell lysate following the manufacturer protocol. Progranulin levels were expressed relative to protein amount, and compound treatment groups were expressed relative to the vehicle-treated group.
# as §4
# [13] = tested on: acetylation of histones in the brain; experiment: Acetylation of histones in the brain of mice, required free plasma exposure; format: in vivo
# [14] = cancer patients, oral; cited from earlier work
Compound,increase in CSF progranulin protein ([1]; 4 h after acute dosing),increase in plasma progranulin protein levels ([1]; concomitantly (4 h after acute dosing)),increase in progranulin protein expression [2] [fold],"Maximum Tolerated Dose (MTD), not observed at highest dose used [3] [mg]",increase in progranulin mRNA [4] [fold],increase in progranulin mRNA [5] [fold],increase in progranulin mRNA in brain (cerebral cortex) [6] [fold],increase in progranulin protein (western blot) ([7]; 0.3 μM) [fold],increase in progranulin protein (western blot) ([7]; 3 μM) [fold],increase in progranulin protein levels in brain (cerebral cortex) [8],"Kp ([9]; acute and repeated dosing, read-out: brain:plasma (b:p) ratio for drug levels)",increase in progranulin mRNA expression ([10]; 0.3 μM) [fold],increase in progranulin mRNA expression ([10]; 3 μM) [fold],"increase in progranulin gene expression ([10]; lowest dose (0.1 μM), as soon as 4 h after treatment, sustained for 24 h) [%]",increase in progranulin protein expression [11] [fold],increase in progranulin protein expression [12] [fold],"excess of plasma protein unbound ('free') drug required to produce acetylation of histones in the brain, compared to Compound 1 [13] [fold]",Maximum Tolerated Dose (MTD) [14] [mg],"Kp ([9]; acute dosing experiments, read-out: brain:plasma (b:p) ratio)"
"O=C(NO)c1ccc(C2=Nc3ccccc3Oc3ccccc32)cc1 [Compound 1, (Z)-4-(dibenzo[b,f][1,4]oxazepin-11-yl)-N-hydroxybenzamide]",about 1.9 fold,about 1.4 fold,1.5,> 400,1.3,2.4,1.45,1.3,1.6,about 1.16 fold,~5,~2,~5,~40,1.77,1.1,–,–,–
O=C(CCCCCCC(=O)Nc1ccccc1)NO [SAHA],–,–,–,–,–,–,–,–,–,–,–,–,–,–,–,–,~30,400,~0.1
